This is an account of results in patent publication US10968225B2, “Compounds and compositions for the treatment of cystic fibrosis” (Fondazione Istituto Italiano Di Tecnologia, priority 2017, dated 2021).

Structures are written as SMILES. Where a name gives a salt, the structure may show the parent alone.

This test deals with T1, mutant CFTR (Homo sapiens, UniProt P13569, DEL508-508).
T1 construct: expressed in transfected cells
T1 sequence (P13569 with tags, fused parts or gaps DEL508-508): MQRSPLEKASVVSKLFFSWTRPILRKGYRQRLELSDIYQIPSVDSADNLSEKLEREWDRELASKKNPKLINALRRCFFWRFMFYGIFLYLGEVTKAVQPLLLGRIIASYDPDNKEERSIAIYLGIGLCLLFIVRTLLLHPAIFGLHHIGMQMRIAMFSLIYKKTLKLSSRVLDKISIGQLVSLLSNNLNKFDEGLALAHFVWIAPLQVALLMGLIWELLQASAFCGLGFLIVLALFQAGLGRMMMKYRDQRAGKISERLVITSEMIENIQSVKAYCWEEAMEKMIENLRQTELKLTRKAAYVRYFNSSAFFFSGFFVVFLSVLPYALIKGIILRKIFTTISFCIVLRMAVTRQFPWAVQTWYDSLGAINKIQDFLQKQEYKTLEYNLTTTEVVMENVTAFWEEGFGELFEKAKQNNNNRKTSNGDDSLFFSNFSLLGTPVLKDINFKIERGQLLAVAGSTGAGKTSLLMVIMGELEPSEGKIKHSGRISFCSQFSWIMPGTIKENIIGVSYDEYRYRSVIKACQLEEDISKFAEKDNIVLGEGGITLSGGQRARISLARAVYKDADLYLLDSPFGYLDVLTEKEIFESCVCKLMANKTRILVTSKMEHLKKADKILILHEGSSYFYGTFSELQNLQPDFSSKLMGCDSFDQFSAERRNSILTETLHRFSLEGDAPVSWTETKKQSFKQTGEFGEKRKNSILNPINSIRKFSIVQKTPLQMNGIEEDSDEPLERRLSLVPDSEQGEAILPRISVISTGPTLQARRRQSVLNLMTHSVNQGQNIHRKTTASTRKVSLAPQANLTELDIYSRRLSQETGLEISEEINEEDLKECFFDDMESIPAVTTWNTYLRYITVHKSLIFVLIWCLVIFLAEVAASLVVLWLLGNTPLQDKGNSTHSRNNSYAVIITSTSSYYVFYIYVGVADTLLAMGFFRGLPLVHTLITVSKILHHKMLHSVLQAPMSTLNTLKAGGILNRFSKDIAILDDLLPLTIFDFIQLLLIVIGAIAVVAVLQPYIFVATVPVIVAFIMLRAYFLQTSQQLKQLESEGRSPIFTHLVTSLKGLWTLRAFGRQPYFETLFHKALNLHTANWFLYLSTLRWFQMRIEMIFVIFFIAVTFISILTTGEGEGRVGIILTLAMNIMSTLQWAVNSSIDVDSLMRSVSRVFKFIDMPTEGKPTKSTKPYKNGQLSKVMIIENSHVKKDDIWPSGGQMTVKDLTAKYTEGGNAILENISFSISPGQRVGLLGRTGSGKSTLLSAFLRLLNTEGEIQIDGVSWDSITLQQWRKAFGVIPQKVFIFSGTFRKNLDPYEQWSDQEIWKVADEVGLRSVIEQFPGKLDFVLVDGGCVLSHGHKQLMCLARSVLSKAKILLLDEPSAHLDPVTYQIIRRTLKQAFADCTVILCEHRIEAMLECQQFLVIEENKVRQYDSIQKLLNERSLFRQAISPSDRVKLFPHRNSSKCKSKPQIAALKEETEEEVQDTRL
As to the kind of experiment: Fluorescence (HS-YFP) assay for CFTR activity, corrector assay. The test is classed as cell-based. Conditions: CFBE41o- and FRT cells with stable expression of mutant CFTR, read-out: activity (EC50).
As for `CC(C)N1CCc2c(c(C(F)(F)F)nn2-c2cccc(C(=O)N(C)c3ccc4c(c3)OCO4)c2)C1` [Compound 021, N-(1,3-Benzodioxol-5-yl)-3-[5-isopropyl-3-(trifluoromethyl)-6,7-dihydro-4H-pyrazolo[4,3-c]pyridin-1-yl]-N-methyl-benzamide], the 50% effective concentration (EC50) is under 1000 nM.

In the case of `CN(C(=O)c1cccc(-n2nc(C(F)(F)F)c3c2CCN(Cc2cccc(C(=O)O)c2)C3)c1)c1ccc2c(c1)OCO2` [Compound 025, 3-[[1-[3-[1,3-Benzodioxol-5-yl(methyl)carbamoyl]phenyl]-3-(trifluoromethyl)-6,7-dihydro-4H-pyrazolo[4,3-c]pyridin-5-yl]methyl]benzoic acid], the EC50 was under 1000 nM.

For the compound `CN(C(=O)c1cccc(-n2nc(C(F)(F)F)c3c2CCN(Cc2ccc(C(=O)O)cc2)C3)c1)c1ccc2c(c1)OCO2` [Compound 026, 4-[[1-[3-[1,3-Benzodioxol-5-yl(methyl)carbamoyl]phenyl]-3-(trifluoromethyl)-6,7-dihydro-4H-pyrazolo[4,3-c]pyridin-5-yl]methyl]benzoic acid], the EC50 is under 1000 nM.

Consider `CN(C(=O)c1cccc(-n2nc(C(F)(F)F)c3c2CN(C(=O)OC(C)(C)C)CC3)c1)c1ccc2c(c1)OCO2` [Compound 027, tert-Butyl 1-[3-[1,3-benzodioxol-5-yl(methyl)carbamoyl]phenyl]-3-(trifluoromethyl)-5,7-dihydro-4H-pyrazolo[3,4-c]pyridine-6-carboxylate], for which the 50% effective concentration (EC50) was under 1000 nM.

On to `CN(C(=O)c1cccc(-n2nc(C(F)(F)F)c3c2CCCN3C(=O)OC(C)(C)C)c1)c1ccc2c(c1)OCO2` [Compound 028, tert-Butyl 1-[3-[1,3-benzodioxol-5-yl(methyl)carbamoyl]phenyl]-3-(trifluoromethyl)-6,7-dihydro-5H-pyrazolo[4,3-b]pyridine-4-carboxylate], for which the EC50 was under 1000 nM.

In the case of `CN1CCc2c(C(F)(F)F)nn(-c3cccc(C(=O)N(C)c4ccc5c(c4)OCO5)c3)c2C1` [Compound 029, N-(1,3-Benzodioxol-5-yl)-N-methyl-3-[6-methyl-3-(trifluoromethyl)-5,7-dihydro-4H-pyrazolo[3,4-c]pyridin-1-yl]benzamide], the half-maximal effective concentration (EC50) is under 1000 nM.

Regarding `Cc1nc2ccc(N(C)C(=O)c3cccc(-n4nc(C(F)(F)F)c5c4CCNC5)c3)cc2o1` [Compound 030, N-Methyl-N-(2-methyl-1,3-benzoxazol-6-yl)-3-[3-(trifluoromethyl)-4,5,6,7-tetrahydropyrazolo[4,3-c]pyridin-1-yl]benzamide hydrochloride], the concentration for a half-maximal effect (EC50) was 1000 to 2000 nM.

As for `CC(C)C(=O)N1CCc2c(c(C(F)(F)F)nn2-c2cccc(C(=O)N(C)c3ccc4c(c3)OCO4)c2)C1` [Compound 031, N-(1,3-Benzodioxol-5-yl)-N-methyl-3-[5-(2-methylpropanoyl)-3-(trifluoromethyl)-6,7-dihydro-4H-pyrazolo[4,3-c]pyridin-1-yl]benzamide], the concentration giving a half-maximal response (EC50) was under 1000 nM.

Consider `CN(C(=O)c1cccc(-n2nc(C(F)(F)F)c3c2CCN(C(=O)C(C)(C)C(F)(F)F)C3)c1)c1ccc2c(c1)OCO2` [Compound 033, N-(1,3-Benzodioxol-5-yl)-N-methyl-3-[5-(3,3,3-trifluoro-2,2-dimethyl-propanoyl)-3-(trifluoromethyl)-6,7-dihydro-4H-pyrazolo[4,3-c]pyridin-1-yl]benzamide], for which the concentration giving a half-maximal response (EC50) is under 1000 nM.

Turning to `CN(C(=O)c1cccc(-n2nc(C(F)(F)F)c3c2CCN(C(=O)C2(O)CC2)C3)c1)c1ccc2c(c1)OCO2` [Compound 034, N-(1,3-Benzodioxol-5-yl)-3-[5-(1-hydroxycyclopropanecarbonyl)-3-(trifluoromethyl)-6,7-dihydro-4H-pyrazolo[4,3-c]pyridin-1-yl]-N-methyl-benzamide], the 50% effective concentration (EC50) is under 1000 nM.

For the compound `CN(C(=O)c1cccc(-n2nc(C(F)(F)F)c3c2CCN(C(=O)C(C)(C)c2ccccc2)C3)c1)c1ccc2c(c1)OCO2` [Compound 035, N-(1,3-Benzodioxol-5-yl)-N-methyl-3-[5-(2-methyl-2-phenyl-propanoyl)-3-(trifluoromethyl)-6,7-dihydro-4H-pyrazolo[4,3-c]pyridin-1-yl]benzamide], the EC50 was under 1000 nM.

With `Cc1nc2cc(F)c(N(C)C(=O)c3cccc(-n4nc(C(F)(F)F)c5c4CCN(C(=O)OC(C)(C)C)C5)c3)cc2o1` [Compound 036, tert-Butyl 1-[3-[(5-fluoro-2-methyl-1,3-benzoxazol-6-yl)-methylcarbamoyl]phenyl]-3-(trifluoromethyl)-6,7-dihydro-4H-pyrazolo[4,3-c]pyridine-5-carboxylate], the EC50 was under 1000 nM.

For `Cc1nc2cc(F)c(NC(=O)c3cccc(-n4nc(C(F)(F)F)c5c4CCN(C(=O)OC(C)(C)C)C5)c3)cc2o1` [Compound 037, tert-Butyl 1-[3-[(5-fluoro-2-methyl-1,3-benzoxazol-6-yl)carbamoyl]phenyl]-3-(trifluoromethyl)-6,7-dihydro-4H-pyrazolo[4,3-c]pyridine-5-carboxylate], the EC50 is over 2000 nM.

On to `CN(C(=O)c1cccc(-n2nc(C(F)(F)F)c3c2CNCC3)c1)c1ccc2c(c1)OCO2` [Compound 038, N-(1,3-Benzodioxol-5-yl)-N-methyl-3-[3-(trifluoromethyl)-4,5,6,7-tetrahydropyrazolo[3,4-c]pyridin-1-yl] benzamide hydrochloride], for which the EC50 is under 1000 nM.

With `Cc1nc2ccc(N(C)C(=O)c3cccc(-n4nc(C(F)(F)F)c5c4CCN(C(=O)OC(C)(C)C)C5)c3)cc2o1` [Compound 039, tert-Butyl 1-[3-[methyl-(2-methyl-1,3-benzoxazol-6-yl)carbamoyl]phenyl]-3-(trifluoromethyl)-6,7-dihydro-4H-pyrazolo[4,3-c]pyridine-5-carboxylate], the 50% effective concentration (EC50) was under 1000 nM.

As for `Cc1nc2ccc(N(C)C(=O)c3cccc(-n4nc(C(F)(F)F)c5c4CCN(C)C5)c3)cc2o1` [Compound 040, N-Methyl-N-(2-methyl-1,3-benzoxazol-6-yl)-3-[5-methyl-3-(trifluoromethyl)-6,7-dihydro-4H-pyrazolo[4,3-c]pyridin-1-yl]benzamide], the concentration giving a half-maximal response (EC50) is under 1000 nM.

Turning to `CC(=O)Nc1ccc(N(C)C(=O)c2cccc(-n3nc(C(F)(F)F)c4c3CCN(C)C4)c2)cc1O` [Compound 041, N-(4-Acetamido-3-hydroxy-phenyl)-N-methyl-3-[5-methyl-3-(trifluoromethyl)-6,7-dihydro-4H-pyrazolo[4,3-c]pyridin-1-yl]benzamide], the half-maximal effective concentration (EC50) was over 2000 nM.

For the compound `COC(=O)c1ccc(C(=O)N2CCc3c(c(C(F)(F)F)nn3-c3cccc(C(=O)N(C)c4ccc5c(c4)OCO5)c3)C2)cc1` [Compound 042, Methyl 4-[1-[3-[1,3-benzodioxol-5-yl(methyl)carbamoyl]phenyl]-3-(trifluoromethyl)-6,7-dihydro-4H-pyrazolo[4,3-c]pyridine-5-carbonyl]benzoate], the EC50 is under 1000 nM.

As to `CN(C(=O)c1cccc(-n2nc(C(F)(F)F)c3c2CCN(C(=O)c2ccc(C(=O)O)cc2)C3)c1)c1ccc2c(c1)OCO2` [Compound 044, 4-[1-[3-[1,3-Benzodioxol-5-yl(methyl)carbamoyl]phenyl]-3-(trifluoromethyl)-6,7-dihydro-4H-pyrazolo[4,3-c]pyridine-5-carbonyl]benzoic acid], the EC50 is over 2000 nM.

In general, EC50 refers to the concentration at which the effect is half-maximal.
